# Source: publication PMC10674565 (Pharmaceuticals, 2023)
# Assays:
# CYP3A4 isoenzyme = system: CYP3A4 isoenzyme; set-up: method as in PMID 21254598; conditions: cited from earlier work
# SLCO1B1 [1] = molecular target: T1, SLCO1B1 (Homo sapiens, UniProt Q9Y6L6); experiment: Inhibition of SLCO1B1-mediated uptake of atorvastatin in HEK293-SLCO1B1 cells; assay type: in vitro ADME; set-up: The SLCO1B1 gene was obtained via synthesis and was cloned into the pEGFP-N1 vector; expressed in transfected cells; host or cells: HEK293
# T1 sequence (Q9Y6L6 1-691): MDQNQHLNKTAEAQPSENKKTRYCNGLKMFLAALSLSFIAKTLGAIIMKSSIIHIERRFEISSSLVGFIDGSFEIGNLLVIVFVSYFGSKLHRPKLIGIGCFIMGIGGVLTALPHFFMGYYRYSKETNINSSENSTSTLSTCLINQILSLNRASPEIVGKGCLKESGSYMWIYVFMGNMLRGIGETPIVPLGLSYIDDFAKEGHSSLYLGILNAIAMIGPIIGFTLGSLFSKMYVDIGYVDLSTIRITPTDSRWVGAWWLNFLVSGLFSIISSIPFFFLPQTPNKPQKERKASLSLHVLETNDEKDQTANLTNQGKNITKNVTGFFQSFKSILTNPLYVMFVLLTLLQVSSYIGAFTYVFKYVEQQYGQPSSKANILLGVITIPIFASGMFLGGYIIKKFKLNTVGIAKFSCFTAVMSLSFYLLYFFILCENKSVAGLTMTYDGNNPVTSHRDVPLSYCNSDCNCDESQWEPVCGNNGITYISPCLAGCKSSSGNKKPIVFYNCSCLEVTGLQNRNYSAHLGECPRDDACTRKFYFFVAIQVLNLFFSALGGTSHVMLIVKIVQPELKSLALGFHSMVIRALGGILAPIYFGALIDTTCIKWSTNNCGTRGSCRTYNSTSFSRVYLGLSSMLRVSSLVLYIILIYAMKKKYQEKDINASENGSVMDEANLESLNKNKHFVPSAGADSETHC
# Protocol: As a positive inhibition control, rifampicin at similar concentrations was used. Three independent experiments were performed. […] Proteins were precipitated by adding acetonitrile in a 1:1 ratio to the sample. […] The mobile phase gradient program was as follows: 0-0.6 min-35% A and 65% B, 0.6-5.0 min-5% A and 95% B, 5.0-8.0 min-35% A and 65% B. The flow rate and the column temperature were maintained at 300 μL/min and 35 °C. Aliquots (2 μL) of the extracted samples were injected.
# chronic brain ischemia = system: chronic brain ischemia; set-up: method as in PMID 34932280; conditions: 318 patients with chronic brain ischemia; cited from earlier work
# SLCO1B1 [2] = molecular target: T1, SLCO1B1; conditions: HEK293-SLCO1B1 vs HEK293, 10 µM
# SLCO1B1 [3] = experiment: Effect on expression of SLCO1B1 in HepG2 cells (Western blot); assay type: cell-based, human; conditions: 1, 10, and 100 µM, 24 h incubation
# Protocol: The HepG2 cell line was purchased from American Type Culture Collection (Institute of Cytology, Russian Academy of Sciences, Moscow, Russia). Cells were cultured in Dulbecco’s modified Eagle’s medium containing 15% fetal bovine serum, 2 mM l-glutamine, 100 units/mL penicillin G, and 100 μg/mL streptomycin in an atmosphere of 5% CO2 at 37 °C on a 24-well plate until a monolayer was formed. HepG2 cells were used to test the effect of EMHPS on the expression of SLCO1B1.
# (§1) To test the effect of EMHPS on the expression of ABCB1 and SLCO1B1, Caco-2 or HepG2 cells, respectively, were cultured on a 6-well plate. EMHPS was used at concentrations of 1, 10, and 100 µM, and the duration of exposure was 24 h. After the incubation, the cells were removed from the surface of the wells with a trypsin–EDTA solution (0.25% trypsin and 0.2% EDTA, Sigma-Aldrich, St. Louis, MO, USA).
# (§2) The expression levels of ABCB1 and SLCO1B1 were analyzed via Western blot.
# (§3) Cells were lysed with NP40 Cell Lysis Buffer Thermo (Thermo Fisher Scientific) with protease inhibitors (Sigma Aldrich, St. Louis, MO, USA) for 30 min at +4 °C with constant stirring at a rate of 10^7 cells per 100 µL of buffer. Protein concentrations were quantified with the Pierce Coomassie Plus Assay Kit (Thermo Fisher, Rockford, IL, USA). […]
# [4] = system: hemispheric ischemic stroke; set-up: method as in doi:10.1007/s11055-018-0652-y; conditions: 151 patients with hemispheric ischemic stroke; cited from earlier work
# ABCB1 = experiment: Effect on expression of ABCB1 in Caco-2 cells (Western blot); assay type: cell-based, human; conditions: 1, 10, and 100 µM, 24 h incubation
# Protocol: as §1, §2, §3
# The protein content was measured relative to the level of housekeeping protein GAPDH (primary antibodies: GAPDH Loading Control Monoclonal Antibody (GA1R) and […] (Invitrogen); secondary antibodies: secondary rabbit antibodies to primary GAPDH antibodies—Rabbit-anti-Mouse IgG (H + L) Secondary Antibody and HRP (Invitrogen). Chemiluminescence was recorded using ChemiDocXRS+ (Bio-Rad). The intensity of the obtained bands was analyzed densitometrically using ImageLab 6.0.0 software (Bio-Rad).
# [5] = human, HEK293-SLCO1B1 cells, pH 7.4, probe atorvastatin 1 µM
smiles,measurement,setting,value
"CCc1nc(C)ccc1O.O=C(O)CCC(=O)O [EMHPS, 2-Ethyl-6-methyl-3-hydroxypyridine succinate]",effect on CYP3A4 isoenzyme,CYP3A4 isoenzyme,inducer
same,IC50,SLCO1B1 [1],12.1 ± 7.64 µM
same,inhibition at 100 µM,SLCO1B1 [1]; [5],64.7%
same,inhibition at 500 µM,SLCO1B1 [1]; [5],90.6%
same,benefit over the placebo in basic neurological tests,chronic brain ischemia,statistically significant benefit
same,substrate of SLCO1B1,SLCO1B1 [2],not a substrate of SLCO1B1
same,effect on expression of SLCO1B1,SLCO1B1 [3],did not significantly affect
same,neurological status compared with the placebo,[4],improved the neurological status
same,effect on expression of ABCB1,ABCB1,did not significantly affect
